Measured values as given in US20130345254A1, “CYCLOHEXANE SUBSTITUTED AMINO CYCLOPENTANE DERIVATIVES AS USEFUL CCR2 ANTAGONISTS” (priority 2011, published 2013).

Molecular target: T1, human CCR2 (Homo sapiens, UniProt P41597)
T1 construct: expressed in transfected cells; host or cells: Ba/F3 cells (membrane preparation)
Test: CCR2 membrane binding assay (SPA, 125I-rhMCP-1 competition)
Settings: membranes from Ba/F3 cells transfected with human CCR2; 0.03 nM 125I-rhMCP-1; 4 h room temperature
Experimental: The radio-ligand binding assay was done using scintillation proximity assay (SPA) technology. Briefly, membranes (1 μg per assay point) from Ba/F3 cells transfected with human CCR2, and wheat germ agglutinin-coated SPA beads (80 μg per point; Amersham, Arlington Heights, Ill.), were pre-incubated for 30 min at room temperature in CCR2 buffer (50 mM HEPES (pH=7.4), 10 mM MgCl2, 10 mM NaCl, 1 mM CaCL2, 0.1% BSA, 10 μg/ml Saponin). At this point pre-bound SPA bead, membrane complex was incubated at room temperature for 4 h with varying concentrations of punitive CCR2 antagonists (in 1% DMSO, final) and 0.03 nM ^125I-rhMCP-1 in CCR2 Buffer (S.A. 2200 Ci/mmol, PerkinElmer Life and Analytical Science, Boston, Mass.; NEX332). Binding competition was measured using a 1450 Microbeta Trilux counter (Wallac, Gaithersburg, Md.). Binding constants (IC50 and slope) were calculated using GraphPad Prism software (GraphPad Software, Inc., La Jolla Calif.).

T1 sequence (P41597 whole entry): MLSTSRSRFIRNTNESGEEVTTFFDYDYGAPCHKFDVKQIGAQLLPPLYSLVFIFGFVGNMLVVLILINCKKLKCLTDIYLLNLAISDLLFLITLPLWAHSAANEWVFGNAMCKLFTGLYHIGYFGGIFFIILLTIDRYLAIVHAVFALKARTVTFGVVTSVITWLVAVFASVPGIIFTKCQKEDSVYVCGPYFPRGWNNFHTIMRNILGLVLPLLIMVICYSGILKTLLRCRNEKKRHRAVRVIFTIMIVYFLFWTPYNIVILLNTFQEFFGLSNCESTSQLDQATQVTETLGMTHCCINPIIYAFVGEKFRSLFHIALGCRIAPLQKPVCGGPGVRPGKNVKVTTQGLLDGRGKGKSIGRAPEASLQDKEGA

`CC=C1CCC(N[C@@H]2CC[C@H](C(=O)NCc3cc(C(F)(F)F)cc(C(F)(F)F)c3)C2)CC1` (some centres unmarked) [Compound 1] was tested, and the IC50 was 2.1 µM.
Work on `CC=C1CCC(N[C@@H]2CC[C@@](C(=O)N3CCc4ncc(C(F)(F)F)cc4C3)(C(C)C)C2)CC1` (some centres unmarked) [Compound 2] yielded an IC50 of 0.009 µM.
